Literature values in patent EP3646858A1, “ENCAPSULATED FORMULATIONS” (Pharmalink, SL, priority 2017, dated 2019).

Conditions: association with piperine; inhibition of hepatic and intestinal glucuronidation

increase of the bioavailability of curcumin: 20 fold
SMILES: COc1cc(/C=C/C(=O)CC(=O)/C=C/c2ccc(O)c(OC)c2)ccc1O [curcumin]
